In patent US11180474B2 (BRISTOL-MYERS SQUIBB COMPANY, priority 2016, dated 2021):

How the values were obtained:
human TLR7 = molecular target: T1, human TLR7 (Homo sapiens, UniProt Q9NYK1); experiment: TLR7 inhibition reporter assay (HEK-Blue cells, SEAP reporter, gardiquimod stimulation); assay type: cell-based; conditions: HEK-Blue cells overexpressing human TLR7, gardiquimod 7.5 μM
T1 construct: host or cells: HEK-Blue cells
T1 sequence (Q9NYK1 27-1049): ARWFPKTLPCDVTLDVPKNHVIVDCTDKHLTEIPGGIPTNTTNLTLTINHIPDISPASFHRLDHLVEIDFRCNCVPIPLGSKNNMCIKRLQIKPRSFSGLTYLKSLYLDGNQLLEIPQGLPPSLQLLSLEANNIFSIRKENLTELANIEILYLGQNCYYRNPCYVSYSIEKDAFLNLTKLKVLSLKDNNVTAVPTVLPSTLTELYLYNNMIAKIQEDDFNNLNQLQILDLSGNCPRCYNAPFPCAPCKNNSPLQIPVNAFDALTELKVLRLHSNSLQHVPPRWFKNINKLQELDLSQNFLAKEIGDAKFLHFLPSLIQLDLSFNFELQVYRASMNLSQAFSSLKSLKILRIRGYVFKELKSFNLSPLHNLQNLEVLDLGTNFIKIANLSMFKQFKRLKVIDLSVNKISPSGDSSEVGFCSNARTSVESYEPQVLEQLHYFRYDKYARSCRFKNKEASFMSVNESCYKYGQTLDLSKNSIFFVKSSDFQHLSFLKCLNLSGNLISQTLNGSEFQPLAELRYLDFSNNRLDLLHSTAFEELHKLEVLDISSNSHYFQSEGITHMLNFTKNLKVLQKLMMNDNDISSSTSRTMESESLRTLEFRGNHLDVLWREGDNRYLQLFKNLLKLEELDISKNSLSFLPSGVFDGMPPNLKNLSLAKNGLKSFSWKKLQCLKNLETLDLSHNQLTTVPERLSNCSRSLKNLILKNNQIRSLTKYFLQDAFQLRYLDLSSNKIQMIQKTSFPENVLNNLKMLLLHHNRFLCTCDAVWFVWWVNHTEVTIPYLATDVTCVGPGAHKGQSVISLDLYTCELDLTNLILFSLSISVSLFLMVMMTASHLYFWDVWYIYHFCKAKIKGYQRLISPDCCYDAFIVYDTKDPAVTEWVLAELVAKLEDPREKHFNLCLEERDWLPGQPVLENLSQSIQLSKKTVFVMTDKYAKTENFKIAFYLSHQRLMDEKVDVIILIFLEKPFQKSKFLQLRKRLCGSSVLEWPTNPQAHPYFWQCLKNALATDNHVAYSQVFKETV
In short: (§1)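 22 h, 37° C, 5% CO2 incubation; compounds 0.05 nM-50 μM final; TLR7 cells 15000/well, TLR8 20,000/well. Readout: SEAP via HEK-Blue Detection medium. % inhibition = signal reduction versus agonist + DMSO wells, referenced to known inhibitor.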

human TLR8 = molecular target: T2, human TLR8 (Homo sapiens, UniProt Q9NR97); experiment: TLR8 inhibition reporter assay (HEK-Blue cells, SEAP reporter, R848 stimulation); assay type: cell-based; conditions: HEK-Blue cells overexpressing human TLR8, R848 15.9 μM
T2 construct: host or cells: HEK-Blue cells
T2 sequence (Q9NR97 27-1041): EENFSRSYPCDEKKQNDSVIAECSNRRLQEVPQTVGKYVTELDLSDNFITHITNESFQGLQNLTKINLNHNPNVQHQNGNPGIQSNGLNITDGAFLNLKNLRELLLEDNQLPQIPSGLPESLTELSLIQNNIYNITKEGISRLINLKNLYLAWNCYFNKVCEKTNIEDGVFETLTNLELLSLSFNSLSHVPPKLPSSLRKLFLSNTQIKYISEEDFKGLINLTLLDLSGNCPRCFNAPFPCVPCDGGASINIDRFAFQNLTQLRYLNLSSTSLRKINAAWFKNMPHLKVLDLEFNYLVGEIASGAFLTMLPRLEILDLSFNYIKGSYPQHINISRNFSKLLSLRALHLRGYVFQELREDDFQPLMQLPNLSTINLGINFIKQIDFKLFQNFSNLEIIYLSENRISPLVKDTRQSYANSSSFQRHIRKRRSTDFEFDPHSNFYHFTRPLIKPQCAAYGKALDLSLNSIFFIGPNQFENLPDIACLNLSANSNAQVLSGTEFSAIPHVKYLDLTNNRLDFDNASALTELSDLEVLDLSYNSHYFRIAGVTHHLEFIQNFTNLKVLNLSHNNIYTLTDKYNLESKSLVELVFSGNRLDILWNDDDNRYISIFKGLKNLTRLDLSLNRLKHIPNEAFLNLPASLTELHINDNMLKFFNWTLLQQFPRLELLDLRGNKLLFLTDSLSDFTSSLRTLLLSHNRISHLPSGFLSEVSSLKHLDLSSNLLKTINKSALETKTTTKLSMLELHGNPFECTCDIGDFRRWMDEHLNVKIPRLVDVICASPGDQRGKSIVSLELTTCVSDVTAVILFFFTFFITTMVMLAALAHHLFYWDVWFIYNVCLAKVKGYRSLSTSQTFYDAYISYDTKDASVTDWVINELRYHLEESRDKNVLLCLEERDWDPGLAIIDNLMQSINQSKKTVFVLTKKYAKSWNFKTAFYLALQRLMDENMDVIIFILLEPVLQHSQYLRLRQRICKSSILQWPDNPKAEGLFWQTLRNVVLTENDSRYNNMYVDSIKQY
In short: as §1

COc1ccc(-c2[nH]c3ccc(C4CCN(C(=O)CNC(CO)CO)CC4)cc3c2C(C)C)cc1OC [Example 220, 2-((1,3-dihydroxypropan-2-yl)amino)-1-(4-(2-(3,4-dimethoxyphenyl)-3-isopropyl-1H-indol-5-yl)piperidin-1-yl)ethan-1-one]
IC50 (human TLR7): 25 nM | IC50 (human TLR8): 21 nM
